According to the NIST ThermoML archive (doi:10.1021/je060203o):

Details: Liquid; for mass density: Vibrating tube method; for speed of sound: Pulse-echo method

CCCn1cc[n+](C)c1.O=S(=O)([N-]S(=O)(=O)C(F)(F)F)C(F)(F)F
Details | mass density [kg/m3] | speed of sound [m/s]
298.15 K, 100 kPa | 1475.7 | –
298.15 K, 500 kPa | – | 1236.4
298.15 K, 1830 kPa | 1476.98 | –
298.15 K, 3500 kPa | – | 1246.5
298.15 K, 7000 kPa | – | 1258.2
298.15 K, 10000 kPa | – | 1268
298.15 K, 10020 kPa | 1483.13 | –
298.15 K, 13500 kPa | – | 1279.2
298.15 K, 14980 kPa | 1486.69 | –
298.15 K, 17000 kPa | – | 1290
298.15 K, 19750 kPa | 1490.06 | –
298.15 K, 20000 kPa | – | 1299.2
298.15 K, 25860 kPa | 1494.22 | –
298.15 K, 30000 kPa | – | 1329.2
298.15 K, 31480 kPa | 1497.95 | –
298.15 K, 37770 kPa | 1502.01 | –
298.15 K, 40000 kPa | – | 1357.5
298.15 K, 44170 kPa | 1506.01 | –
298.15 K, 50000 kPa | – | 1384.5
298.15 K, 50750 kPa | 1509.97 | –
298.15 K, 59590 kPa | 1515.1 | –
298.15 K, 60000 kPa | – | 1410.3
298.15 K, 70000 kPa | – | 1435.1
298.15 K, 80000 kPa | – | 1459
298.15 K, 90000 kPa | – | 1482.1
298.15 K, 100000 kPa | – | 1504.5
298.15 K, 112500 kPa | – | 1531.7
298.15 K, 125000 kPa | – | 1557.6
298.15 K, 137510 kPa | – | 1582.8
298.15 K, 150000 kPa | – | 1606
298.15 K, 162500 kPa | – | 1629.6
298.15 K, 175000 kPa | – | 1652.5
298.15 K, 187500 kPa | – | 1674.5
298.15 K, 200000 kPa | – | 1695.9
299.15 K, 100 kPa | 1474.62 | –
299.15 K, 1830 kPa | 1475.87 | –
299.15 K, 10020 kPa | 1482.12 | –
299.15 K, 14980 kPa | 1485.68 | –
299.15 K, 19750 kPa | 1489.01 | –
299.15 K, 25860 kPa | 1493.18 | –
299.15 K, 31480 kPa | 1496.89 | –
299.15 K, 37770 kPa | 1500.95 | –
299.15 K, 44170 kPa | 1504.95 | –
299.15 K, 50750 kPa | 1509.07 | –
299.15 K, 59590 kPa | 1514.22 | –
300.15 K, 100 kPa | 1473.66 | –
300.15 K, 1830 kPa | 1474.94 | –
300.15 K, 10020 kPa | 1481.1 | –
300.15 K, 14980 kPa | 1484.68 | –
300.15 K, 19750 kPa | 1488.07 | –
300.15 K, 25860 kPa | 1492.27 | –
300.15 K, 31480 kPa | 1496.03 | –
300.15 K, 37770 kPa | 1500.11 | –
300.15 K, 44170 kPa | 1504.13 | –
300.15 K, 50750 kPa | 1508.14 | –
300.15 K, 59590 kPa | 1513.35 | –
301.15 K, 100 kPa | 1472.79 | –
301.15 K, 1830 kPa | 1474.07 | –
301.15 K, 10020 kPa | 1480.19 | –
301.15 K, 14980 kPa | 1483.74 | –
301.15 K, 19750 kPa | 1487.1 | –
301.15 K, 25860 kPa | 1491.35 | –
301.15 K, 31480 kPa | 1495.08 | –
301.15 K, 37770 kPa | 1499.16 | –
301.15 K, 44170 kPa | 1503.18 | –
301.15 K, 50750 kPa | 1507.27 | –
301.15 K, 59590 kPa | 1512.51 | –
302.15 K, 100 kPa | 1471.92 | –
302.15 K, 1830 kPa | 1473.15 | –
302.15 K, 10020 kPa | 1479.27 | –
302.15 K, 14980 kPa | 1482.84 | –
302.15 K, 19750 kPa | 1486.21 | –
302.15 K, 25860 kPa | 1490.42 | –
302.15 K, 31480 kPa | 1494.19 | –
302.15 K, 37770 kPa | 1498.29 | –
302.15 K, 44170 kPa | 1502.37 | –
302.15 K, 50750 kPa | 1506.46 | –
302.15 K, 59590 kPa | 1511.74 | –
303.15 K, 100 kPa | 1471.14 | –
303.15 K, 1830 kPa | 1472.39 | –
303.15 K, 10020 kPa | 1478.49 | –
303.15 K, 14980 kPa | 1482 | –
303.15 K, 19750 kPa | 1485.41 | –
303.15 K, 25860 kPa | 1489.57 | –
303.15 K, 31480 kPa | 1493.32 | –
303.15 K, 37770 kPa | 1497.43 | –
303.15 K, 44170 kPa | 1501.5 | –
303.15 K, 50750 kPa | 1505.6 | –
303.15 K, 59590 kPa | 1510.93 | –
308.15 K, 100 kPa | 1466.83 | –
308.15 K, 500 kPa | – | 1214
308.15 K, 1830 kPa | 1468.1 | –
308.15 K, 3500 kPa | – | 1224.4
308.15 K, 7000 kPa | – | 1236.2
308.15 K, 10000 kPa | – | 1246.2
308.15 K, 10020 kPa | 1474.12 | –
308.15 K, 13500 kPa | – | 1257.6
308.15 K, 14980 kPa | 1477.65 | –
308.15 K, 17000 kPa | – | 1268.6
308.15 K, 19750 kPa | 1480.89 | –
308.15 K, 20000 kPa | – | 1278
308.15 K, 25860 kPa | 1485.18 | –
308.15 K, 30000 kPa | – | 1308.6
308.15 K, 31480 kPa | 1489 | –
308.15 K, 37770 kPa | 1493.05 | –
308.15 K, 40000 kPa | – | 1337.1
308.15 K, 44170 kPa | 1497.15 | –
308.15 K, 50000 kPa | – | 1364.7
308.15 K, 50750 kPa | 1501.36 | –
308.15 K, 59590 kPa | 1506.81 | –
308.15 K, 60000 kPa | – | 1391
308.15 K, 70000 kPa | – | 1416.2
308.15 K, 80000 kPa | – | 1440.3
308.15 K, 90000 kPa | – | 1463.7
308.15 K, 100000 kPa | – | 1486.4
308.15 K, 112500 kPa | – | 1513.6
308.15 K, 125000 kPa | – | 1539.9
308.15 K, 137510 kPa | – | 1565.2
308.15 K, 150000 kPa | – | 1589.6
308.15 K, 162500 kPa | – | 1613.3
308.15 K, 175000 kPa | – | 1636.3
308.15 K, 187500 kPa | – | 1658.6
308.15 K, 200000 kPa | – | 1680.4
313.15 K, 100 kPa | 1462.07 | –
313.15 K, 1830 kPa | 1463.28 | –
313.15 K, 10020 kPa | 1469.31 | –
313.15 K, 14980 kPa | 1472.86 | –
313.15 K, 19750 kPa | 1476.15 | –
313.15 K, 25860 kPa | 1480.43 | –
313.15 K, 31480 kPa | 1484.36 | –
313.15 K, 37770 kPa | 1488.4 | –
313.15 K, 44170 kPa | 1492.56 | –
313.15 K, 50750 kPa | 1496.83 | –
313.15 K, 59590 kPa | 1502.49 | –
318.15 K, 100 kPa | 1457.05 | –
318.15 K, 500 kPa | – | 1192.3
318.15 K, 1830 kPa | 1458.31 | –
318.15 K, 3500 kPa | – | 1202.9
318.15 K, 7000 kPa | – | 1215
